These results are taken from patent US11999746B2, “Compounds” (GlaxoSmithKline Intellectual Property Development Limited, priority 2014, dated 2024).

Experiment [1] addresses T1, Lp-PLA2 in human plasma (Homo sapiens, UniProt Q13093).
T1 construct: from tissue; host or cells: pooled human plasma
T1 sequence (Q13093 22-441): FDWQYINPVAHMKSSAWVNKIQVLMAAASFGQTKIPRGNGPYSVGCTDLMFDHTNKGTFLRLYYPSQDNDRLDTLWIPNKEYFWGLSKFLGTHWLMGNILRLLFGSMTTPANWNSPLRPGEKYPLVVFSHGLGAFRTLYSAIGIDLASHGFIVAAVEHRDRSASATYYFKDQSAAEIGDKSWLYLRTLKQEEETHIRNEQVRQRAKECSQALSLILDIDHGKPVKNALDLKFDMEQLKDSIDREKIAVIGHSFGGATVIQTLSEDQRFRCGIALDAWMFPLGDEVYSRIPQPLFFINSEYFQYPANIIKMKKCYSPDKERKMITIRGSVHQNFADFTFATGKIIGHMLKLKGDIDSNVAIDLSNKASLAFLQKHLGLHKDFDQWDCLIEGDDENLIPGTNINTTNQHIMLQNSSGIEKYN
As to the kind of experiment: (3a) Lp-PLA2 human plasma Thio-PAF assay. It counts as biochemical. Particulars: (3a) Thio-PAF assay, pooled human plasma; Examples 1-265 and 413-430 were tested here; read-out: pIC50 in the Lp-PLA2 human plasma assay (converted). Put shortly: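 Pooled human plasma preincubated 30 min with serially diluted compound, then given 2-thio-PAF substrate with CPM and NEM in 50 mM HEPES pH 7.4, 150 mM NaCl, 1 mM CHAPS. Reaction quenched with TFA after 2 min; CPM thiol-adduct fluorescence read at ex 380/em 485 after 40 min; pIC50 reported.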

The target of experiment [2] is T2, recombinant human Lp-PLA2 (Homo sapiens, UniProt Q13093).
T2 sequence (Q13093 22-441): T1 sequence (Q13093 22-441)
As to the kind of experiment: (1a) PED6 assay, recombinant human Lp-PLA2 (rhLp-PLA2). The class given is biochemical. The settings on record: Examples 1-167 and 413-430 were tested here, one experiment or average of multiple experiments, read-out: rhLp-PLA2 (pIC50) (converted). An excerpt: (1) Recombinant Human Lp-PLA2 Assays (rhLp-PLA2)
N-((6-(2,4-Dinitrophenyl)amino)-hexanoyl)-2-(4,4-difluoro-5,7-dimethyl-4-bora-3a,4a-diaza-s-indacene-3-pentanoyl)-1-hexadecanoyl-sn-glycero-3-phosphoethanolamine, triethylammonium salt (PED6) is a commercially available fluorescently-labeled phospholipid, which is commercially available from Invitrogene and Molecular Probes. There is a quenching […] and a Bodipy fluorescein (FL) group in the sn2 position. Upon cleavage with Lp-PLA2, the Bodipy FL group is liberated and then may result in an increase in fluorescence. Inhibitors of Lp-PLA2 therefore prevent this cleavage and no fluorescent increase is observed.
The PED6 assay was run as an unquenched 10 μL assay. The source plate containing the compounds to be tested was prepared by making 1:3 (by volume) serial dilution of the compounds within DMSO on 384-well microplate. Then, 0.01 μL of the compounds on compound source plate were transferred into 384 well Greiner 784076 (black) plates using ECHO liquid dispenser. 5 μL of recombinant human Lp-PLA2 enzyme (4 nM) rhLp-PLA2 in assay buffer of 50 mM HEPES, pH 7.4, 150 mM NaCl, 1 mM CHAPS) was added to each well of the plate. Plates were centrifuged for 10 sec at 500 rpm. After 30 minutes preincubation, 5 μL of substrate (4 μM PED6 [from 5 mM DMSO stock] in assay buffer of 50 mM HEPES, pH 7.4, 150 mM NaCl, 1 mM CHAPS) was added to 384 well Greiner 784076 (black) plates. Plates were centrifuged for 10 sec at 500 rpm. The plate was covered to protect it from light and incubated for 20 min at room temperature. The plates were read for fluorescence intensity at ex: 480/em: 540 using ViewLux microplate imager for Envision spectrofluroimeters. pIC50 data, curve and QC analysis was conducted by using XL fit module in Excel.

Each structure is given as a SMILES string. Structures can show the parent of a compound that is named as a salt.

Regarding `O=c1nc(OCc2ccc(F)cc2F)cc2n1C[C@H]1CCCCN21` [Example E55, (R)-3-((2,4-Difluorobenzyl)oxy)-6,7,8,9,9a,10-hexahydro-1H-pyrido[1′,2′:3,4]imidazo[1,2-c] pyrimidin-1-one], the IC50 in experiment [1] is at most 10000 nM; in experiment [2] it was at most 100 nM.
The corresponding values for `O=c1nc(OCc2cnc(Oc3ccc(Cl)c(C(F)(F)F)c3)c(F)c2)cc2n1CC1CCCN21` (stereo not drawn) [Example E76, 3-((6-(4-Chloro-3-(trifluoromethyl)phenoxy)-5-fluoropyridin-3-yl)methoxy)-7,8,8a,9 tetra hydro pyrrolo[1′,2′:3,4]imidazo[1,2-c]pyrimidin-1(6H)-one] are at most 10000 nM and at most 100 nM.
The corresponding values for `Cn1cc(Oc2ccc(COc3cc4n(c(=O)n3)C[C@@H]3CCCCN43)cc2F)cn1` [Example E51, (S)-3-((3-fluoro-4-((1-methyl-1H-pyrazol-4-yl)oxy)benzyl)oxy)-6,7,8,9,9a,10-hexahydro-1H-pyrido[1,2′:3,4]imidazo[1,2-c]pyrimidin-1-one] are at most 10000 nM and at most 100 nM.
For the compound `O=c1nc(OCc2cc(F)c(Oc3cnn(C(F)(F)F)c3)c(F)c2)cc2n1C[C@H]1COCN21` [Example E151, (S)-6-((3,5-difluoro-4-((1-(trifluoromethyl)-1H-pyrazol-4-yl)oxy)benzyl)oxy)-10,10a-dihydro-1H-oxazolo[3′,4′:3,4]imidazo[1,2-c]pyrimidin-8(3H)-one], the IC50 in experiment [1] is at most 100 nM; in experiment [2], at most 1 nM.
Turning to `O=c1nc(OCc2cc(F)c(Oc3ccnc(C(F)(F)F)c3)c(F)c2)cc2n1C[C@H]1COCN21` [Example E141, (S)-6-((3,5-difluoro-4-((2-(trifluoromethyl)pyridin-4-yl)oxy)benzyl)oxy)-10,10a-dihydro-1H-oxazolo[3′,4′:3,4]imidazo[1,2-c]pyrimidin-8(3H)-one], the results for the IC50 in experiment [1] and in experiment [2] were at most 100 nM and at most 1 nM, respectively.
Turning to `O=c1nc(OCc2cccc(F)c2F)cc2n1C[C@@H]1COCCN21` [Example E131, (R)-7-((2,3-difluorobenzyl)oxy)-3,4,11,11a-tetrahydropyrimido[6′,1′:2,3]imidazo[5,1-c][1,4] oxazin-9(1H)-one], the IC50 in experiment [1] and in experiment [2] was at most 100 nM throughout.
Take `Cn1cc(Oc2c(F)cc(COc3cc4n(c(=O)n3)C[C@H]3COCCN43)cc2F)cn1` [Example E114, (S)-7-((3,5-difluoro-4-((1-methyl-1H-pyrazol-4-yl)oxy)benzyl)oxy)-3,4,11,11a-tetrahydropyrimido[6′,1′:2,3]imidazo[5,1-c][1,4]oxazin-9(1H)-one]: the IC50 in experiment [1] and in experiment [2] was at most 100 nM throughout.
On to `O=c1nc(OCc2cc(F)c(Oc3ccc(C(F)(F)F)nc3)c(F)c2)cc2n1CC1CCCCN21` (stereo not drawn) [Example E25, 3-((3,5-Difluoro-4-((6-(trifluoromethyl)pyridin-3-yl)oxy)benzyl)oxy)-6,7,8,9,9a,10-hexahydro-1H-pyrido[1′,2′:3,4]imidazo[1,2-c]pyrimidin-1-one], for which the values for the IC50 in experiment [1] and in experiment [2] were at most 100 nM and at most 1 nM, respectively.
The corresponding values for `O=c1nc(OCc2cc(F)cc(F)c2)cc2n1C[C@H]1COCN21` [Example E147, (S)-6-((3,5-difluorobenzyl)oxy)-10,10a-dihydro-1H-oxazolo[3′,4′:3,4]imidazo[1,2-c] pyrimidin-8(3H)-one] are at most 10000 nM and at most 100 nM.
Consider `O=c1nc(OCc2cc(F)c(OC3CCCC(F)(F)C3)c(F)c2)cc2n1C[C@@H]1CCCN21` (stereo partly drawn) [Example E93, (S)-3-((4-((3,3-difluorocyclohexyl)oxy)-3,5-difluorobenzyl)oxy)-7,8,8a,9-tetrahydropyrrolo[1′,2′:3,4]imidazo[1,2-c]pyrimidin-1(6H)-one], for which the IC50 in experiment [1] is at most 10000 nM; in experiment [2], at most 100 nM.
Consider `CCCn1cc(Oc2c(F)cc(COc3cc4n(c(=O)n3)C[C@@H]3COCCN43)cc2F)cn1` [Example E122, (R)-7-((3,5-difluoro-4-((1-propyl-1H-pyrazol-4-yl)oxy)benzyl)oxy)-3,4,11,11atetrahydropyrimido[6′,1′:2,3]imidazo[5,1-c][1,4]oxazin-9(1H)-one], for which the IC50 was at most 10000 nM in experiment [1] and at most 100 nM in experiment [2].
Regarding `O=c1nc(OCc2cccc(F)c2)cc2n1C[C@@H]1CCCCN21` [Example E60, (S)-3-((3-Fluorobenzyl)oxy)-6,7,8,9,9a,10-hexahydro-1H-pyrido[1′,2′:3,4]imidazo[1,2-c] pyrimidin-1-one], the IC50 in experiment [1] was at most 10000 nM; in experiment [2], at most 100 nM.
Regarding `CN1c2cc(OCc3cc(F)c(F)c(F)c3)nc(=O)n2CC12CCCCC2` [Example 422, 1′-methyl-7′-((3,4,5-trifluorobenzyl)oxy)-1′H-spiro[cyclohexane-1,2′-imidazo[1,2-c]pyrimidin]-5′(3′H)-one], the results for the IC50 in experiment [1] and in experiment [2] were at most 10000 nM and at most 100 nM, respectively.
The corresponding values for `O=c1nc(OCc2cc(F)c(F)c(F)c2)cc2n1C[C@@H]1CCCN21` [Example E73, (S)-3-((3,4,5-trifluorobenzyl)oxy)-7,8,8a,9-tetrahydropyrrolo[1,2′:3,4]imidazo[1,2-c] pyrimidin-1(6H)-one] are at most 10000 nM and at most 100 nM.
The corresponding values for `O=c1nc(OCc2ccc(F)c(F)c2)cc2n1CC1CCCCN21` (stereo not drawn) [Example E5, 3-((3,4-Difluorobenzyl)oxy)-6,7,8,9,9a,10-hexahydro-1H-pyrido[1′,2′:3,4]imidazo[1,2-c] pyrimidin-1-one] are at most 100 nM and at most 100 nM.
In the same order, the values of `O=c1nc(OCc2cc(F)c(Oc3ccc(C(F)(F)F)nc3)c(F)c2)cc2n1CC1CCCCN21` (stereo not drawn) [Example E49, 3-((3,5-difluoro-4-((6-(trifluoromethyl)pyridin-3-yl)oxy)benzyl)oxy)-6,7,8,9,9a,10-hexahydro-1H-pyrido[1′,2′:3,4]imidazo[1,2-c]pyrimidin-1-one] are at most 100 nM and at most 1 nM.
Consider `O=c1nc(OCc2cc(F)c(Oc3ccc(C(F)(F)F)nc3)c(F)c2)cc2n1CC1CCCCN21` (stereo not drawn) [Example E39, 3-((3,5-Difluoro-4-((6-(trifluoromethyl)pyridin-3-yl)oxy)benzyl)oxy)-6,7,8,9,9a,10-hexahydro 1H-pyrido[1′,2′:3,4]imidazo[1,2-c]pyrimidin-1-one], for which the IC50 in experiment [1] was at most 100 nM; in experiment [2], at most 1 nM.
As to `CCn1cc(Oc2c(F)cc(COc3cc4n(c(=O)n3)CC3CCCN43)cc2F)cn1` (stereo not drawn) [Example E64, 3-((4-((1-Ethyl-1H-pyrazol-4-yl)oxy)-3,5-difluorobenzyl)oxy)-7,8,8a, 9-tetrahydropyrrolo[1′,2′:3,4]imidazo[1,2-c]pyrimidin-1(6H)-one], the IC50 in experiment [1] was at most 10000 nM; in experiment [2] it was at most 100 nM.
The corresponding values for `O=c1nc(OCc2cc(F)c(Oc3ccnc(C(F)(F)F)c3)c(F)c2)cc2n1C[C@@H]1COCN21` [Example E142, (R)-6-((3,5-difluoro-4-((2-(trifluoromethyl)pyridin-4-yl)oxy)benzyl)oxy)-10,10a-dihydro-1H-oxazolo[3′,4′:3,4]imidazo[1,2-c]pyrimidin-8(3H)-one] are at most 100 nM and at most 1 nM.
The corresponding values for `O=c1nc(OCc2cc(F)c(F)c(F)c2)cc2n1CC1CCCCN21` (stereo not drawn) [Example E2, 3-((3,4,5-Trifluorobenzyl)oxy)-6,7,8,9,9a,10-hexahydro-1H-pyrido[1′,2′:3,4]imidazo[1,2-c] pyrimidin-1-one] are at most 100 nM and at most 100 nM.
Regarding `O=c1nc(OCc2ccc(F)cc2)cc2n1CC1CCCCN21` (stereo not drawn) [Example E1, 3-((4-Fluorobenzyl)oxy)-6,7,8,9,9a,10-hexahydro-1H-pyrido[1,2′:3,4]imidazo[1,2-c] pyrimidin-1-one trifluoroacetate salt], the IC50 is at most 10000 nM in experiment [1] and at most 100 nM in experiment [2].
